Changes are numbered by the printed parent chain.
Assays:
Androgen receptor T878A = molecular target: T1, Androgen receptor T878A (Homo sapiens, UniProt P10275, T878A); experiment: Degradation of overexpressed Androgen Receptor in A549 cells (HiBiT), T878A; assay type: cell-based; conditions: A549 cells overexpressing AR T878A, cycloheximide, 24 hours
T1 construct: expressed in transfected cells; host or cells: A549, transduced, puromycin selected
T1 sequence (P10275 1-920 T878A): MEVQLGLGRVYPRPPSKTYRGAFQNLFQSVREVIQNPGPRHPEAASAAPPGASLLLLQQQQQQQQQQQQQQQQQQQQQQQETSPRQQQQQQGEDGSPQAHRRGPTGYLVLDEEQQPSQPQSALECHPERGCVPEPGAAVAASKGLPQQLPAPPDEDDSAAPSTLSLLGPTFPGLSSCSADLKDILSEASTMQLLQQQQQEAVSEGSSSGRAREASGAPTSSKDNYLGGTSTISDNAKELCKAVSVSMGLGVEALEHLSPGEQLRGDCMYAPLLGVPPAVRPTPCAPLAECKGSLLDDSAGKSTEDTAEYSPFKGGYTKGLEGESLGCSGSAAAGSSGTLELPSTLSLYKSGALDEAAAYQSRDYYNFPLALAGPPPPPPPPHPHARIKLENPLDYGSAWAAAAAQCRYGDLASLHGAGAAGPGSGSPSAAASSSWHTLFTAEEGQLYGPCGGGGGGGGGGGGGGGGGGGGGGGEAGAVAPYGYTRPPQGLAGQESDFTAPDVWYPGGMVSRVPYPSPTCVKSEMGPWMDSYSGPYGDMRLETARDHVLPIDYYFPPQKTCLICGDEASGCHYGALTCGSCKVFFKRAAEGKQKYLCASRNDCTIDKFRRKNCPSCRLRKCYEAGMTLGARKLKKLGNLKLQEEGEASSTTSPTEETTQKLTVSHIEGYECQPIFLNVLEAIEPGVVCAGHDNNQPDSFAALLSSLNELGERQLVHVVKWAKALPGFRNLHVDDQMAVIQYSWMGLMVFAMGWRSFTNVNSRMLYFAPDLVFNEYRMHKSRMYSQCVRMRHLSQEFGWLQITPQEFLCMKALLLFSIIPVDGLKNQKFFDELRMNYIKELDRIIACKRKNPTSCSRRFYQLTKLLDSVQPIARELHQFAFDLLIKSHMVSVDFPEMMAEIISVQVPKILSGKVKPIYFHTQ
Method: (§1) A549 cells were transduced to express wild type androgen receptor and Androgen receptor containing the following mutations (L702H, H875Y W742C W742L F877L, T878A and T878A/H875Y) with HiBiT tags. Transduced cells following puromycin selection were maintained in a humidified incubator (at 37° C. and 5% CO2 in the DMEM medium supplemented with 1% (v/v) Pen/Strep, 1% (v/v) Glutamax and 10% (v/v) FBS. A549 cells expressing each AR construct were detached from plate and counted. Cell suspensions at density 0.2 million per mL were prepared. Cell suspension was supplemented with 100 μg/mL of cycloheximide to block protein synthesis. Cells were preincubated with cycloheximide for 1 hr before seeding. Cells were seeded onto 384-well plate at density of 5,000 in 25 μL per well. A two fold serial dilution of test compounds, starting from 1 μM (row A) in 2-fold serial dilution series across the column using Tecan D300e dispenser. […]
(§2) Nano-Glo HiBiT Lytic reagent was prepared by adding LgBiT protein and Nano-Glo® substrate to lytic buffer pre-equilibrated at room temperature following manufacturer protocol (https://www.promega.co.uk/resources/protocols/technical-manuals/101/nanoglo-luciferase-assay-system-protocol). […] The plates were then centrifuged (100×G, 1 min) and incubated on shaker for 10 mins before taking readings on Pherastar Luminescence microplate reader. […]

[1] = molecular target: T2, wild type androgen receptor (Homo sapiens, UniProt P10275); experiment: Degradation of overexpressed Androgen Receptor in A549 cells (HiBiT), wild type; assay type: cell-based; conditions: A549 cells overexpressing AR WT, cycloheximide, 24 hours
T2 construct: expressed in transfected cells; host or cells: A549, transduced, puromycin selected
T2 sequence (P10275 1-920): T1 sequence (P10275 1-920 T878A) with A878T
Method: as §1, §2

SMILES: COc1cc(O[C@H]2C(C)(C)[C@H](NC(=O)c3ccc(N4CCC(CN5CCC(n6ncc7c(N8CCC(=O)NC8=O)nccc76)CC5)CC4)c(F)c3)C2(C)C)ccc1C#N [Example 20, N-((1r,3r)-3-(4-Cyano-3-methoxyphenoxy)-2,2,4,4-tetramethylcyclobutyl)-4-(4-((4-(4-(2,4-dioxotetrahydropyrimidin-1(2H)-yl)-1H-pyrazolo[4,3-c]pyridin-1-yl)piperidin-1-yl)methyl)piperidin-1-yl)-3-fluorobenzamide]
- Summary pXC50 (Androgen receptor T878A): 8.81
- Summary pXC50 [1]: 8.95
